According to ChEMBL document CHEMBL3860054, “Design, synthesis and biological evaluation of novel alkyl diamine linked bivalent β-carbolines as angiogenesis inhibitors” (Bioorg Med Chem Lett, 2016):
Calls of active or inactive are those of the source. The calls are words filed in the database; no cut-off is given here.

Assays:
[1] = Solubility of compound in water; assay type: physicochemical
[2] = Antiproliferative activity against human EAhy926 cells assessed as reduction in cell viability measured after 48 hrs by MTT assay; assay type: functional, cell-based; conditions: EA.hy 926, 48 h
EA.hy 926 [3] = assay: Antiangiogenic activity in human EAhy926 cells assessed as inhibition of VEGF-induced cell migration measured after 24 hrs by wound healing assay relative to control; assay type: functional, cell-based
Gallus gallus = organism: Gallus gallus; assay: Antiangiogenic activity in chicken chorioallantoic membrane at 30 uM/disc after 48 hrs by microscopic analysis; assay type: functional
EA.hy 926 [4] = assay: Antiangiogenic activity in human EAhy926 cells assessed as inhibition of VEGF-induced capillary-like tube formation on matrigel after 24 hrs by phase-contrast microscopy; assay type: functional, cell-based

SMILES	solubility [1] [µg/mL]	IC50 [2] [µM]	inhibition (EA.hy 926 [3])	Activity (Gallus gallus)	inhibition (EA.hy 926 [4])
Cc1nc(CNCCCCCCNCc2cc3c4ccccc4n(Cc4ccccc4)c3c(C)n2)cc2c3ccccc3n(Cc3ccccc3)c12.Cl	> 10000	1.39			
Cl.Clc1cccc(Cn2c3ccccc3c3cc(CNCCCCCCNCc4cc5c6ccccc6n(Cc6cccc(Cl)c6)c5cn4)ncc32)c1	> 10000	2.98			
Cl.c1ccc(CCCn2c3ccccc3c3cc(CNCCCCNCc4cc5c6ccccc6n(CCCc6ccccc6)c5cn4)ncc32)cc1	> 10000	4.18			
CCCCCCCCn1c2ccccc2c2cc(CNCCCCNCc3cc4c5ccccc5n(CCCCCCCC)c4cn3)ncc21.Cl	> 10000	4.86			
CCCCn1c2ccccc2c2cc(CNCCCCCCNCc3cc4c5ccccc5n(CCCC)c4c(C)n3)nc(C)c21.Cl	> 10000	2.74			
Cl.c1ccc(CCCn2c3ccccc3c3cc(CNCCCCCCNCc4cc5c6ccccc6n(CCCc6ccccc6)c5cn4)ncc32)cc1	> 10000	2.35			
COc1ccc(/C=C\c2cc(OC)c(OC)c(OC)c2)cc1OP(=O)(O)O [FOSBRETABULIN]		6.4			
Cl.Clc1cccc(Cn2c3ccccc3c3cc(CNCCCCCNCc4cc5c6ccccc6n(Cc6cccc(Cl)c6)c5cn4)ncc32)c1	> 10000	1.06 to 1.1	Dose-dependent effect	Active	Dose-dependent effect
Cl.Fc1ccc(Cn2c3ccccc3c3cc(CNCCCCCNCc4cc5c6ccccc6n(Cc6ccc(F)cc6)c5cn4)ncc32)cc1	> 10000	4.14			
Cl.c1ccc(Cn2c3ccccc3c3cc(CNCCCCCCNCc4cc5c6ccccc6n(Cc6ccccc6)c5cn4)ncc32)cc1	> 10000	4.76			
Cl.c1ccc(Cn2c3ccccc3c3cc(CNCCCNCc4cc5c6ccccc6n(Cc6ccccc6)c5cn4)ncc32)cc1	> 10000	> 10			
Cc1nc(CNCCCCNCc2cc3c4ccccc4n(Cc4cccc(Cl)c4)c3c(C)n2)cc2c3ccccc3n(Cc3cccc(Cl)c3)c12.Cl	> 10000	4.81			
Cl.Clc1cccc(Cn2c3ccccc3c3cc(CNCCCCNCc4cc5c6ccccc6n(Cc6cccc(Cl)c6)c5cn4)ncc32)c1	> 10000	6.86			
Cc1nc(CNCCCCNCc2cc3c4ccccc4n(CCCc4ccccc4)c3c(C)n2)cc2c3ccccc3n(CCCc3ccccc3)c12.Cl	> 10000	2.11			
CCCCCCCCn1c2ccccc2c2cc(CNCCCCCNCc3cc4c5ccccc5n(CCCCCCCC)c4cn3)ncc21.Cl	> 10000	3.77			
Cl.Fc1ccc(Cn2c3ccccc3c3cc(CNCCCCCCNCc4cc5c6ccccc6n(Cc6ccc(F)cc6)c5cn4)ncc32)cc1	> 10000	4.08			

Further lines, with some results ahead:

solubility [1] [µg/mL]	SMILES	IC50 [2] [µM]	inhibition (EA.hy 926 [3])	Activity (Gallus gallus)	inhibition (EA.hy 926 [4])
> 10000	Cc1nc(CNCCCCCCNCc2cc3c4ccccc4n(CC(C)C)c3c(C)n2)cc2c3ccccc3n(CC(C)C)c12.Cl	2.68			
> 10000	Cl.Cn1c2ccccc2c2cc(CNCCCCCCNCc3cc4c5ccccc5n(C)c4cn3)ncc21	2.58			
> 10000	CCn1c2ccccc2c2cc(CNCCCCNCc3cc4c5ccccc5n(CC)c4cn3)ncc21.Cl	> 10			
> 10000	CCCCn1c2ccccc2c2cc(CNCCCNCc3cc4c5ccccc5n(CCCC)c4cn3)ncc21.Cl	> 10			
> 10000	CCCCn1c2ccccc2c2cc(CNCCCCNCc3cc4c5ccccc5n(CCCC)c4cn3)ncc21.Cl	2.17			
> 10000	CCn1c2ccccc2c2cc(CNCCCCCCNCc3cc4c5ccccc5n(CC)c4cn3)ncc21.Cl	2.59			
> 10000	CC(C)Cn1c2ccccc2c2cc(CNCCCCCCNCc3cc4c5ccccc5n(CC(C)C)c4cn3)ncc21.Cl	6.3			
> 10000	CC(C)n1c2ccccc2c2cc(CNCCCCCCNCc3cc4c5ccccc5n(C(C)C)c4cn3)ncc21.Cl	2.74			
> 10000	CCCCn1c2ccccc2c2cc(CNCCCCCCNCc3cc4c5ccccc5n(CCCC)c4cn3)ncc21.Cl	4.82			
> 10000	CC(C)n1c2ccccc2c2cc(CNCCCCNCc3cc4c5ccccc5n(C(C)C)c4cn3)ncc21.Cl	2.48			
> 10000	CC(C)Cn1c2ccccc2c2cc(CNCCCCNCc3cc4c5ccccc5n(CC(C)C)c4cn3)ncc21.Cl	3.08			
